Reference: the NIST ThermoML archive (doi:10.1016/j.jct.2016.11.009)

Assay: xn = mol fraction of the nth substance listed
Settings: Fluid (supercritical or subcritical phases), Buoyancy - hydrostatic balance with magnetic suspension - one sinker

C [methane] + O=C=O
Settings | mass density [kg/m3]
299.61 K, 4220 kPa, x2 = 0.6015 | 65.102
299.93 K, 5997 kPa, x2 = 0.3997 | 77.827
299.94 K, 6004 kPa, x2 = 0.6015 | 100.404
299.95 K, 9002 kPa, x2 = 0.2017 | 95.03
299.95 K, 15006 kPa, x2 = 0.8988 | 723.669
299.96 K, 5002 kPa, x2 = 0.6015 | 79.746
299.96 K, 7003 kPa, x2 = 0.3997 | 93.846
299.96 K, 7999 kPa, x2 = 0.2017 | 82.733
299.96 K, 8008 kPa, x2 = 0.8988 | 302.149
299.96 K, 12001 kPa, x2 = 0.3997 | 186.929
299.97 K, 5996 kPa, x2 = 0.7985 | 129.225
299.97 K, 6997 kPa, x2 = 0.2017 | 70.838
299.97 K, 8000 kPa, x2 = 0.3997 | 110.726
299.97 K, 10986 kPa, x2 = 0.8988 | 631.428
299.97 K, 13852 kPa, x2 = 0.0998 | 130.843
299.98 K, 2118 kPa, x2 = 0.0998 | 16.647
299.98 K, 4383 kPa, x2 = 0.0998 | 35.981
299.98 K, 7000 kPa, x2 = 0.6015 | 123.126
299.98 K, 7004 kPa, x2 = 0.8988 | 203.104
299.98 K, 8002 kPa, x2 = 0.6015 | 148.65
299.98 K, 8997 kPa, x2 = 0.3997 | 128.548
299.98 K, 8997 kPa, x2 = 0.8988 | 483.358
299.98 K, 9722 kPa, x2 = 0.0998 | 87.624
299.98 K, 10003 kPa, x2 = 0.7985 | 353.847
299.98 K, 10997 kPa, x2 = 0.7985 | 428.638
299.99 K, 4000 kPa, x2 = 0.2017 | 37.902
299.99 K, 4003 kPa, x2 = 0.3997 | 48.763
299.99 K, 4192 kPa, x2 = 0.0998 | 34.275
299.99 K, 4997 kPa, x2 = 0.7985 | 99.658
299.99 K, 6002 kPa, x2 = 0.2017 | 59.46
299.99 K, 10005 kPa, x2 = 0.2017 | 107.622
299.99 K, 12000 kPa, x2 = 0.2017 | 133.357
299.99 K, 12004 kPa, x2 = 0.6015 | 275.504
299.99 K, 12017 kPa, x2 = 0.8988 | 664.349
299.99 K, 14986 kPa, x2 = 0.0998 | 142.483
299.99 K, 18001 kPa, x2 = 0.2017 | 207.683
300 K, 3662 kPa, x2 = 0.2017 | 34.438
300 K, 6399 kPa, x2 = 0.0998 | 54.523
300 K, 7624 kPa, x2 = 0.0998 | 66.394
300 K, 8000 kPa, x2 = 0.7985 | 212.092
300 K, 10995 kPa, x2 = 0.3997 | 166.796
300 K, 14999 kPa, x2 = 0.2017 | 171.971
300 K, 17997 kPa, x2 = 0.6015 | 433.882
300.01 K, 5001 kPa, x2 = 0.2017 | 48.462
300.01 K, 8998 kPa, x2 = 0.7985 | 274.617
300.01 K, 9002 kPa, x2 = 0.6015 | 176.866
300.01 K, 11000 kPa, x2 = 0.2017 | 120.384
300.02 K, 2964 kPa, x2 = 0.0998 | 23.652
300.02 K, 3999 kPa, x2 = 0.7985 | 74.633
300.02 K, 6996 kPa, x2 = 0.7985 | 165.378
300.02 K, 9996 kPa, x2 = 0.6015 | 207.768
300.02 K, 10011 kPa, x2 = 0.8988 | 582.856
300.02 K, 15007 kPa, x2 = 0.3997 | 246.022
300.02 K, 18000 kPa, x2 = 0.0998 | 171.73
300.03 K, 5996 kPa, x2 = 0.8988 | 149.398
300.03 K, 10998 kPa, x2 = 0.6015 | 241.279
300.03 K, 11790 kPa, x2 = 0.0998 | 109.201
300.03 K, 17999 kPa, x2 = 0.8988 | 760.577
300.04 K, 5006 kPa, x2 = 0.8988 | 112.111
300.04 K, 6260 kPa, x2 = 0.0998 | 53.19
300.04 K, 12001 kPa, x2 = 0.7985 | 485.736
300.04 K, 14998 kPa, x2 = 0.6015 | 367.75
300.05 K, 18002 kPa, x2 = 0.3997 | 297.591
300.06 K, 5002 kPa, x2 = 0.3997 | 62.85
300.06 K, 17999 kPa, x2 = 0.7985 | 637.414
300.07 K, 9277 kPa, x2 = 0.0998 | 82.984
300.07 K, 14999 kPa, x2 = 0.7985 | 584.129
300.07 K, 16598 kPa, x2 = 0.0998 | 158.42
300.1 K, 4310 kPa, x2 = 0.8988 | 90.757
300.21 K, 10004 kPa, x2 = 0.3997 | 147.143
303.07 K, 10005 kPa, x2 = 0.8988 | 522.742
303.07 K, 11007 kPa, x2 = 0.8988 | 588.449
303.1 K, 11000 kPa, x2 = 0.6015 | 229.981
303.1 K, 12003 kPa, x2 = 0.0998 | 109.095
303.1 K, 18071 kPa, x2 = 0.7985 | 621.015
303.11 K, 4004 kPa, x2 = 0.8988 | 80.364
303.11 K, 9000 kPa, x2 = 0.0998 | 78.724
303.11 K, 9001 kPa, x2 = 0.7985 | 254.341
303.11 K, 17996 kPa, x2 = 0.2017 | 202.897
303.11 K, 18001 kPa, x2 = 0.0998 | 167.945
303.12 K, 3001 kPa, x2 = 0.0998 | 23.673
303.12 K, 10001 kPa, x2 = 0.7985 | 320.908
303.12 K, 11000 kPa, x2 = 0.0998 | 98.851
303.13 K, 3999 kPa, x2 = 0.2017 | 37.359
303.13 K, 4999 kPa, x2 = 0.3997 | 61.796
303.13 K, 6004 kPa, x2 = 0.7985 | 125.434
303.13 K, 6999 kPa, x2 = 0.2017 | 69.612
303.13 K, 11860 kPa, x2 = 0.7985 | 444.556
303.13 K, 11999 kPa, x2 = 0.2017 | 130.323
303.14 K, 3995 kPa, x2 = 0.6015 | 59.469
303.14 K, 7004 kPa, x2 = 0.6015 | 119.411
303.14 K, 8002 kPa, x2 = 0.0998 | 68.892
303.14 K, 17999 kPa, x2 = 0.6015 | 420.157
303.15 K, 5000 kPa, x2 = 0.0998 | 40.895
303.15 K, 8006 kPa, x2 = 0.6015 | 143.46
303.15 K, 9999 kPa, x2 = 0.6015 | 198.747
303.15 K, 10004 kPa, x2 = 0.0998 | 88.738
303.15 K, 11003 kPa, x2 = 0.7985 | 391.279
303.15 K, 12001 kPa, x2 = 0.3997 | 181.298
303.15 K, 14998 kPa, x2 = 0.7985 | 561.073
303.16 K, 4000 kPa, x2 = 0.7985 | 73.078
303.16 K, 4001 kPa, x2 = 0.3997 | 48.004
303.16 K, 5009 kPa, x2 = 0.6015 | 77.914
303.16 K, 6006 kPa, x2 = 0.0998 | 50.034
303.16 K, 7994 kPa, x2 = 0.7985 | 200.301
303.16 K, 8000 kPa, x2 = 0.3997 | 108.241
303.16 K, 8016 kPa, x2 = 0.8988 | 253.316
303.16 K, 8992 kPa, x2 = 0.8988 | 374.284
303.16 K, 8999 kPa, x2 = 0.6015 | 169.77
303.17 K, 4998 kPa, x2 = 0.2017 | 47.685
303.17 K, 5005 kPa, x2 = 0.8988 | 108.149
303.17 K, 6001 kPa, x2 = 0.2017 | 58.474
303.17 K, 9001 kPa, x2 = 0.2017 | 93.089
303.17 K, 14997 kPa, x2 = 0.0998 | 139.317
303.17 K, 18000 kPa, x2 = 0.8988 | 742.988
303.18 K, 4002 kPa, x2 = 0.0998 | 32.139
303.18 K, 5999 kPa, x2 = 0.3997 | 76.379
303.18 K, 6996 kPa, x2 = 0.3997 | 91.801
303.18 K, 7001 kPa, x2 = 0.8988 | 186.521
303.18 K, 7999 kPa, x2 = 0.2017 | 81.148
303.19 K, 7000 kPa, x2 = 0.0998 | 59.247
303.19 K, 12002 kPa, x2 = 0.6015 | 261.85
303.19 K, 15005 kPa, x2 = 0.2017 | 167.871
303.2 K, 5001 kPa, x2 = 0.7985 | 97.235
303.2 K, 8999 kPa, x2 = 0.3997 | 125.402
303.2 K, 10993 kPa, x2 = 0.3997 | 162.067
303.2 K, 10996 kPa, x2 = 0.2017 | 117.65
303.21 K, 7002 kPa, x2 = 0.7985 | 158.82
303.21 K, 9999 kPa, x2 = 0.3997 | 143.458
303.21 K, 15000 kPa, x2 = 0.8988 | 701.018
303.21 K, 17999 kPa, x2 = 0.3997 | 288.435
303.22 K, 9998 kPa, x2 = 0.2017 | 105.223
303.22 K, 15003 kPa, x2 = 0.6015 | 352.168
303.23 K, 6005 kPa, x2 = 0.6015 | 97.567
303.26 K, 6002 kPa, x2 = 0.8988 | 141.868
